Measured values taken from US20240343727A1, “PYRIDAZINONE OR PYRIDINONE COMPOUNDS, PREPARATION METHODS AND USES THEREOF” (InventisBio Co., Ltd., priority 2021, published 2024).
Like-named read-outs stand apart in the source and are kept apart here.

How the values were obtained:
[1] = biological target: T1, PARP7 (Homo sapiens, UniProt Q7Z3E1); test: PARP7 TR-FRET assay (binding, displacement of biotinylated Probe A); conditions: 6 nM PARP7, 2 nM Probe A, 25° C., 30 min
T1 sequence (Q7Z3E1 1-657): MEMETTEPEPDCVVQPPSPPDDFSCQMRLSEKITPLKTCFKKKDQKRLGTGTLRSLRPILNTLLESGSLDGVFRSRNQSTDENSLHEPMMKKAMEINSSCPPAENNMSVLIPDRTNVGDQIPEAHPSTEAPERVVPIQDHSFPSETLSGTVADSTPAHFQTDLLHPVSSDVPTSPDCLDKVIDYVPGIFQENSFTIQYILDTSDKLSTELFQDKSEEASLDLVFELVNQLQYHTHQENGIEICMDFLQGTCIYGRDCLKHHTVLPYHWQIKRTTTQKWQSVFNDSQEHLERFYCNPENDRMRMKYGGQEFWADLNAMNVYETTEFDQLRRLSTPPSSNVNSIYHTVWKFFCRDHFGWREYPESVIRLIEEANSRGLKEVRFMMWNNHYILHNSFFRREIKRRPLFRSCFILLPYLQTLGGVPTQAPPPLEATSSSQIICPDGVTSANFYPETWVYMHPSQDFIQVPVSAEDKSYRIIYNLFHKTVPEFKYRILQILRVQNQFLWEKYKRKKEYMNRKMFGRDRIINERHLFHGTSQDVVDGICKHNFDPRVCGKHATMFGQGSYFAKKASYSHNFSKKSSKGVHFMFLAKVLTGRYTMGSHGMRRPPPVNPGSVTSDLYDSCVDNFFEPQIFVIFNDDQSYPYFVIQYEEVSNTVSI
Outline: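 His-tagged PARP7 at 6 nM was preincubated with compound and 2 nM biotinylated Probe A for 30 min at 25° C (HEPES pH 8.0, NaCl, BSA, DTT, Tween20). Europium-streptavidin/ULight-anti-His FRET was read as the 665/615 nm ratio after a further 30 min. IC50 was fitted from % inhibition normalised to vehicle and blank.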

[2] = tested on: NCI-H1373 cells; test: Inhibition of cancer cell growth in NCI-H1373 cells (Cell-titer Glo, 6 days); format: cell-based; conditions: read-out: H1373 Cell Proliferation IC50
Experimental: Biological Assay Example B: Inhibition of cancer cell growth in NCI-H1373 cells by PARP7 inhibitors
NCI-H1373 cells were cultured in RPMI 1640 medium supplemented with 10% fetal bovine serum, 100 U/mL penicillin and 100 ug/mL streptomycin in a 37° C., 5% CO2 incubator. Fifteen hundred cells were seeded into each well of 96-well plate in RPMI1640 medium containing 10% fetal bovine serum and incubated overnight. Serial diluted compounds for each well were added at a final DMSO concentration of 0.5% and a day zero plate was collected for analysis. Compounds were incubated with the cells for 6 days. Cell growth was assessed using Cell-titer Glo reagent (Promega #G^7572). The luminescence signal was collected on Tecan Spark plate reader. Cell growth is determined by correcting for the cell count on day zero. Inhibition rate is calculated with the formula of % inhibition=100*(DMSO control-compounds)/(DMSO control-Blank). Cell growth inhibition IC50 is calculated with the equation of Y-Bottom+ (Top-Bottom)/(1+10^((LogIC50−X) *Hill Slope)).

| Structure (SMILES) | IC50 [1] | IC50 ([2]; Homo sapiens, NCI-H1373, 144 h) | IC50 [2] |
| --- | --- | --- | --- |
| O=C(COC1CCOc2c1n[nH]c(=O)c2Br)N1CCN(c2ncc(C(F)(F)F)cn2)CC1 (single isomer, unassigned) [Compound 8] | < 100 nM | 100 to 1000 nM | – |
| CN1C[C@@H](OCC(=O)N2CCN(c3ncc(C(F)(F)F)cn3)CC2)c2n[nH]c(=O)c3cc(F)cc1c23 (single isomer, unassigned) [Compound 14] | < 100 nM | < 100 nM | – |
| O=C(CC1CN(c2cc(C(F)(F)F)c(=O)[nH]n2)CCO1)N1CCN(c2ncc(C(F)(F)F)cn2)CC1 (single isomer, unassigned) [Compound 32] | < 100 nM | 100 to 1000 nM | – |
| Cc1c(N2CCOC(CC(=O)N3CCN(c4ncc(C(F)(F)F)cn4)CC3)C2)n[nH]c(=O)c1C(F)(F)F (single isomer, unassigned) [Compound 39] | < 100 nM | 100 to 1000 nM | – |
| Cc1c(N2C[C@H](CC(=O)N3CCN(c4ncc(C(F)(F)F)cn4)CC3)O[C@@H](C)C2)n[nH]c(=O)c1C(F)(F)F (single isomer, unassigned) [Compound 42] | < 100 nM | > 1000 nM | – |
| Cc1c(N2C[C@@H](CC(=O)N3CCN(c4ncc(C(F)(F)F)cn4)CC3)O[C@H](C)C2)n[nH]c(=O)c1C(F)(F)F (single isomer, unassigned) [Compound 43] | < 100 nM | 100 to 1000 nM | – |
| O=C(COC1CCOc2c1n[nH]c(=O)c2Cl)N1CCN(c2ncc(C(F)(F)F)cn2)CC1 (single isomer, unassigned) [Compound 53] | < 100 nM | > 1000 nM | – |
| O=C(COC1CCOc2c1n[nH]c(=O)c2Cl)N1CCN(c2ncc(C(F)(F)F)cn2)CC1 (single isomer, unassigned) [Compound 54] | < 100 nM | – | > 1000 nM |
| Cc1cccc2c(N3CCOC(CC(=O)N4CCN(c5ncc(C(F)(F)F)cn5)CC4)C3)n[nH]c(=O)c12 (single isomer, unassigned) [Compound 101] | 100 to 1000 nM | > 1000 nM | – |
| O=C(COC1CCOc2c1n[nH]c(=O)c2C(F)F)N1CCN(c2ncc(C(F)(F)F)cn2)CC1 (single isomer, unassigned) [Compound 114] | > 1000 nM | > 1000 nM | – |
| O=C(c1cncc(Oc2n[nH]c(=O)c(C(F)(F)F)c2N2CC(C3CC3)C2)c1)N1CCN(c2ncc(C(F)F)cn2)CC1 [Compound 279] | < 100 nM | – | – |
| C#Cc1cnc(N2CCN(C(=O)c3cncc(Oc4n[nH]c(=O)c(C(F)(F)F)c4N4CC5(C4)CC(F)(F)C5)c3)CC2)nc1 [Compound 299] | < 100 nM | – | – |
| C#Cc1cnc(N2CCN(C(=O)c3cccc(Oc4n[nH]c(=O)c(C(F)(F)F)c4N4CC5(COC5)C4)c3)CC2)nc1 [Compound 302] | < 100 nM | – | – |
| N#Cc1cnc(N2CCN(C(=O)c3cccc(Oc4n[nH]c(=O)c(C(F)(F)F)c4N4CC(C5CC5)C4)c3)CC2)nc1 [Compound 303] | < 100 nM | – | – |
| O=C(c1cc(Oc2n[nH]c(=O)c(C(F)(F)F)c2N2CC3(C2)CC(F)(F)C3)ccn1)N1CCN(c2ncc(C3CC3)cn2)CC1 [Compound 308] | < 100 nM | – | – |
| O=C(c1cncc(Oc2n[nH]c(=O)c(C(F)(F)F)c2N2CC3(C2)CC(F)(F)C3)c1)N1CCN(c2ncc(C3CC3)cn2)CC1 [Compound 313] | < 100 nM | – | – |
| C#Cc1cnc(N2CCN(C(=O)c3cc(Oc4n[nH]c(=O)c(C(F)(F)F)c4N4CC5(C4)CC(F)(F)C5)ccn3)CC2)nc1 [Compound 317] | < 100 nM | – | – |
| C[C@@H]1CN(C(=O)c2cc(Oc3n[nH]c(=O)c(C(F)(F)F)c3N3CC4(C3)CC(F)(F)C4)ccn2)CCN1c1ncc(Cl)cn1 [Compound 319] | < 100 nM | – | – |
| CCOC1CN(c2c(Oc3cncc(C(=O)N4CCN(c5ncc(C(F)(F)F)cn5)CC4)c3)n[nH]c(=O)c2C(F)(F)F)C1 [Compound 322] | 100 to 1000 nM | – | – |
| N#Cc1ccc(N2CCN(C(=O)c3cccc(Oc4n[nH]c(=O)c(C(F)(F)F)c4N4CC5(C4)CC(F)(F)C5)c3)CC2)nc1 [Compound 333] | < 100 nM | – | – |
| C[C@@H]1CN(C(=O)c2cc(Oc3n[nH]c(=O)c(C(F)(F)F)c3N3CC(O)C3)ccn2)CCN1c1ncc(C(F)(F)F)cn1 [Compound 340] | < 100 nM | – | – |
| COC1CN(c2c(Oc3ccnc(C(=O)N4CCN(c5ncc(C(F)(F)F)cn5)[C@H](C)C4)c3)n[nH]c(=O)c2C(F)(F)F)C1 [Compound 342] | < 100 nM | – | – |

Results, then the compound that gave them:

| IC50 [1] | IC50 ([2]; Homo sapiens, NCI-H1373, 144 h) | IC50 [2] | Structure (SMILES) |
| --- | --- | --- | --- |
| < 100 nM | 100 to 1000 nM | – | O=C(COC1CCNc2c1n[nH]c(=O)c2C(F)(F)F)N1CCN(c2ncc(C(F)(F)F)cn2)CC1 (racemic) [Compound 1] |
| < 100 nM | < 100 nM | – | O=C(CO[C@@H]1CCNc2c1n[nH]c(=O)c2C(F)(F)F)N1CCN(c2ncc(C(F)(F)F)cn2)CC1 (single isomer, unassigned) [Compound 2] |
| < 100 nM | 100 to 1000 nM | – | O=C(CC1CN(c2n[nH]c(=O)c3cc(F)ccc23)CCO1)N1CCN(c2ncc(C(F)(F)F)cn2)CC1 (single isomer, unassigned) [Compound 50] |
| < 100 nM | 100 to 1000 nM | – | O=C(CC1CN(c2n[nH]c(=O)c3ccccc23)CCO1)N1CCN(c2ncc(C(F)(F)F)cn2)CC1 (single isomer, unassigned) [Compound 92] |
| < 100 nM | > 1000 nM | – | Cc1ccc2c(=O)[nH]nc(N3CCOC(CC(=O)N4CCN(c5ncc(C(F)(F)F)cn5)CC4)C3)c2c1 (single isomer, unassigned) [Compound 123] |
| < 100 nM | – | < 100 nM | N#Cc1cnc(N2CCN(C(=O)CC3CN(c4cc(C(F)(F)F)c(=O)[nH]n4)c4cc(C(F)F)ccc4O3)CC2)nc1 (single isomer, unassigned) [Compound 138] |
| < 100 nM | – | – | O=C(c1cc(Oc2n[nH]c(=O)c(C(F)(F)F)c2N2CC3(C2)CC(F)(F)C3)ccn1)N1CCN(c2ncc(C(F)(F)F)cn2)CC1 [Compound 304] |
| < 100 nM | – | – | N#Cc1cnc(N2CCN(C(=O)c3cc(Oc4n[nH]c(=O)c(C(F)(F)F)c4N4CC5(C4)CC(F)(F)C5)ccn3)CC2)nc1 [Compound 305] |
| < 100 nM | – | – | N#Cc1ccc(N2CCN(C(=O)c3cc(Oc4n[nH]c(=O)c(C(F)(F)F)c4N4CC5(C4)CC(F)(F)C5)ccn3)CC2)nc1 [Compound 306] |
| < 100 nM | – | – | O=C(c1cc(Oc2n[nH]c(=O)c(C(F)(F)F)c2N2CC3(C2)CC(F)(F)C3)ccn1)N1CCN(c2ncc(Cl)cn2)CC1 [Compound 307] |
| < 100 nM | – | – | C[C@@H]1CN(C(=O)c2cncc(Oc3n[nH]c(=O)c(C(F)(F)F)c3N3CC4(C3)CC(F)(F)C4)c2)CCN1c1ncc(C(F)(F)F)cn1 [Compound 314] |
| < 100 nM | – | – | COC1CN(c2c(Oc3ccnc(C(=O)N4CCN(c5ncc(C(F)(F)F)cn5)CC4)c3)n[nH]c(=O)c2C(F)(F)F)C1 [Compound 315] |
| < 100 nM | – | – | C[C@@H]1CN(C(=O)c2cc(Oc3n[nH]c(=O)c(C(F)(F)F)c3N3CC4(C3)CC(F)(F)C4)ccn2)CCN1c1ncc(C(F)(F)F)cn1 [Compound 318] |
| < 100 nM | – | – | CCOC1CN(c2c(Oc3ccnc(C(=O)N4CCN(c5ncc(C(F)(F)F)cn5)CC4)c3)n[nH]c(=O)c2C(F)(F)F)C1 [Compound 320] |
| < 100 nM | – | – | O=C(c1cncc(Oc2n[nH]c(=O)c(C(F)(F)F)c2N2CC3(C2)CC(F)(F)C3)c1)N1CCN(c2cnc(C(F)(F)F)cn2)CC1 [Compound 334] |
| < 100 nM | – | – | O=C(c1cncc(Oc2n[nH]c(=O)c(C(F)(F)F)c2N2CC3(C2)CC(F)(F)C3)c1)N1CCN(c2ccc(C(F)(F)F)cn2)CC1 [Compound 335] |
| < 100 nM | – | – | C[C@@H]1CN(C(=O)c2cccc(Oc3n[nH]c(=O)c(C(F)(F)F)c3N3CC4(C3)CC(F)(F)C4)c2)CCN1c1ncc(C#N)cn1 [Compound 341] |
| < 100 nM | – | – | O=C(CC1CN(c2cc(C(F)(F)F)c(=O)[nH]n2)c2ccncc2O1)N1CCN(c2ncc(C(F)(F)F)cn2)CC1 (stereo not shown) [Compound 347] |
| < 100 nM | – | – | C[C@@H]1CN(C(=O)c2cccc(Oc3n[nH]c(=O)c(C(F)(F)F)c3N3CC(C#N)C3)c2)CCN1c1ncc(C(F)(F)F)cn1 [Compound 350] |
| < 100 nM | – | – | C[C@@H]1CN(C(=O)c2cc(Oc3n[nH]c(=O)c(C(F)(F)F)c3N3CC4(CCC4)C3)ccn2)CCN1c1ncc(C(F)(F)F)cn1 [Compound 352] |
